What was measured:
[1] = tested on: eNOS mRNA; experiment: eNOS mRNA level in BAECs (Northern blot); assay type: cell-based, bovine
Protocol: (§1) Bovine aortic endothelial cells (BAECs) from passages 4 to 10 were isolated. Confluent cells were placed in DMEM containing 1% platelet-deprived horse serum (PDHS) for 24 hours before being studied and pretreated with the following inhibitors: phosphatidylinositol-3 (PI-3) kinase-selective inhibitors wortmannin (Sigma Chemical Co) and LY294002 (BIOMOL Research Laboratories), protein kinase C (PKC) activator phorbol-12-myristate-13-acetate (PMA) (Sigma Chemical Co), general PKC inhibitor GF109203X (GFX) (Calbiochem-Novabiochem Corp), and PKCβ isoform-selective inhibitor LY333531 (Lilly Inc). Cells were then stimulated with insulin (Sigma Chemical Co), recombinant insulin-like growth factor-1 (IGF-1) (Upstate Biotechnology), and LPC (Avanti Polar Lipid) or alpha-IR3 antibodies.
(§2) Total RNA from cultured BAECs, PKCβ1-overexpressed BAECs, and vascular stroma from the epididymal fat pads of Zucker rats were isolated according to the guanidinium thiocyanate-phenol-chloroform method with TRI Reagent (Molecular Research Center) and solution D containing 4 mol/L guanidinium thiocyanate, 25 mmol/L sodium citrate, pH 7.0, 0.5% sarcosyl, and 0.1 mol/L 2-mercaptoethanol. Total RNA (20 μg) was fractionated and hybridized to 650-bp cDNA fragments of rat eNOS (kindly provided by Dr Mark A. Perella and Arthur M. E. Lee, Harvard School of Public Health, Boston, Mass.), which were labeled with the use of a DNA labeling system (Multiprime; Amersham Corp). The quantification of eNOS mRNA levels was performed with a PhosphorImager (Molecular Dynamics) and normalized to 36B4 mRNA.

[2] = tested on: eNOS protein; experiment: Immunoblot analysis of eNOS protein in BAECs; assay type: cell-based, bovine
Protocol: as §1
Cells were washed 3 times with ice-cold PBS, pH 7.4, lysed in 50 mmol/L Tris, pH 7.5, 2 mmol/L EDTA, 0.5 mmol/L EGTA, 2 mmol/L PMSF, 25 μg/mL leupeptin, 0.1 mg/mL aprotinin, 1 mmol/L dithiothreitol, 50 mmol/L NaF, and 1% Triton X-100 (Sigma Chemical Co); scraped from the dish; rotated for 1 hour at 4° C.; and centrifuged for 15 minutes at 14 000 g. Protein concentrations of the supernatant were measured according to the method of Bradford and separated with the use of 6% SDS-PAGE. The membrane was incubated for 1 hour with polyclonal anti-human eNOS antibody (Transduction Laboratories) diluted in PBS containing 0.1% Tween-20 and 1% BSA, washed 3 times for 10 minutes with PBS containing 0.1% Tween-20, and incubated with 0.1 μCi/ML ^125I-protein A (Amersham Life Science, Inc). Protein levels of eNOS were quantified with a PhosphorImager.

[3] = tested on: IRS-2-associated PI-3 kinase; experiment: Assay of IRS-2-associated PI-3 kinase activity in BAECs; assay type: cell-based, bovine
Protocol: After preincubation with or without 100 nmol/L PMA for 30 minutes, BAECs were stimulated with insulin (100 nmol/L) for 5 minutes. Cells were processed as described previously for this assay. Aliquots of proteins from the supernatant were immunoprecipitated with 10 μL/ml anti-alpha-insulin receptor substrates (IRS)-2 antibodies (kindly provided by Dr Morris F. White, Joslin Diabetes Center, Boston, Mass) for 2 hours and bound to protein A-Sepharose beads at 4° C. as described previously. The lipids were quantified with a PhosphorImager.

[4] = tested on: NOS activity; experiment: Assay of NOS activity in BAECs; assay type: cell-based, bovine; conditions: insulin 100 nmol/L
Protocol: The amount of NOS activity produced by BAECs was measured by using an NOS Detect assay kit (Transduction Laboratories) according to the manufacturer's instructions. Briefly, BAECs were harvested in PBS containing 1 mmol/L EDTA and centrifuged at 12 000 g. The pellets were lysed in homogenization buffer containing 25 mmol/L Tris, pH 7.4, 1 mmol/L EDTA, and 1 mmol/L EGTA and centrifuged at 12 000 g. Aliquots from the supernatant were used for the measurement of NOS activity through the conversion of [^3H]L-arginine to [^3H]L-citrulline. Data were normalized by the amount of protein and reaction time.

[5] = tested on: eNOS mRNA; experiment: eNOS mRNA level in human umbilical endothelial cells; assay type: cell-based; conditions: IGF-1 25 nmol/L
[6] = tested on: eNOS mRNA; experiment: eNOS mRNA level in adenovirus-infected BAECs (PKCβ1 or β-Gal); assay type: cell-based, bovine; conditions: for increase of eNOS mRNA levels: LPC 100 μmol/L
Protocol: The construction of a replication-deficient recombinant adenovirus for PKCβ1 expression was performed as described in Becker et al. Methods Cell Biol. 1994;43:161-189. Adenovirus-mediated gene transfer to confluent BAECs was performed through a 1-hour adenoviral infection of 10^9 pfu/mL at 37° C. in DMEM containing 10% PDHS. The infected BAECs were then incubated in DMEM containing 1% PDHS for 24 hours, incubated with or without insulin (100 nmol/L) for an additional 6 hours, and harvested. AdV-CMV-PKCβ1- or β-galactosidase (β-Gal)-infected BAECs were assessed for PKC activity and protein expression as previously described.
as §2

[7] = tested on: eNOS mRNA; experiment: eNOS mRNA level in vascular stroma from epididymal fat pads of Zucker rats; assay type: cell-based; conditions: insulin 100 nmol/L, 6 hours
Protocol: Vascular stromas were obtained from the epididymal fat pads of 12-week-old Zucker lean and fatty rats (Harlan Sprague Dawley, Inc). Epididymal fat pads were isolated, minced, and incubated with 0.2% collagenase I for 30 minutes at 37° C. Then, they were fractionated with the use of a Dounce homogenizer and centrifuged at 3000 g for 20 minutes to isolate vessels from adipocytes. Vascular stroma were washed with DMEM containing 0.2% BSA and incubated with DMEM containing 0.2% BSA with or without insulin for 6 hours at 37° C. T he purity of the isolated vascular stroma was quantified through immunohistochemical staining with anti-factor VIII antibody and through immunoblotting of the stroma with antibodies to smooth muscle cell alpha-actin. Only preparations that were stained positively in more than 90% of the vessels were used.
Total RNA from cultured BAECs, PKCβ1-overexpressed BAECs, and vascular stroma from the epididymal fat pads of Zucker rats were isolated according to the guanidinium thiocyanate-phenol-chloroform method with TRI Reagent (Molecular Research Center) and solution D containing 4 mol/L guanidinium thiocyanate, 25 mmol/L sodium citrate, pH 7.0, 0.5% sarcosyl, and 0.1 mol/L 2-mercaptoethanol. […] The quantification of eNOS mRNA levels was performed with a PhosphorImager (Molecular Dynamics) and normalized to 36B4 mRNA.

## CN(C)CCCn1cc(C2=C(c3c[nH]c4ccccc34)C(=O)NC2=O)c2ccccc21 [GFX, reference compound]
[1]; GFX 5 μmol/L without insulin, 6 hours
  increase of eNOS mRNA expression: 38±10%
[1]; both insulin and GFX
  increase of eNOS mRNA expression compared with control cells: 76±20%

## O=c1cc(N2CCOCC2)oc2c(-c3ccccc3)cccc12 [LY294002, reference compound]
[1]; LY294002 50 nmol/L, without insulin treatment
  decrease of basal eNOS mRNA expression: 30±4%
[2]; LY294002 50 nmol/L
  decrease of basal eNOS protein level: 72±5%

## CN(C)C[C@@H]1CCn2cc(c3ccccc32)C2=C(C(=O)NC2=O)c2cn(c3ccccc23)CCO1 [LY333531, reference compound]
[1]; LY333531 20 nmol/L
  increase of eNOS mRNA expression: 60±14%

## CCCCCCCCCCCCCC(=O)O[C@@H]1[C@@H](C)[C@@]2(O)[C@@H](C=C(CO)C[C@]3(O)C(=O)C(C)=C[C@@H]23)[C@@H]2C(C)(C)[C@]12OC(C)=O [PMA, phorbol-12-myristate-13-acetate, reference compound]
[1]; PMA 100 nmol/L, 12 hours
  increase of eNOS mRNA expression: 66±11%
[1]; PMA 100 nmol/L, 24 hours
  increase of eNOS mRNA expression: 105±14%
[1]; PMA 100 nmol/L, initial 6 hours
  change of eNOS mRNA level: did not change
[1]; preincubated with PMA for 30 minutes, then insulin
  remaining effect of insulin on eNOS mRNA levels after PMA preincubation: 14±13%
[3]; PMA 100 nmol/L preincubation 30 minutes
  effect on insulin-induced IRS-2-associated PI-3 kinase activity: mostly inhibited
[3]; PMA treatment
  basal PI-3 kinase activity: not changed

## COC[C@H]1OC(=O)c2coc3c2[C@@]1(C)C1=C(C3=O)[C@@H]2CCC(=O)[C@@]2(C)C[C@H]1OC(C)=O [wortmannin, reference compound]
[4]; wortmannin 100 nmol/L preincubation for 15 minutes
  insulin-induced NOS activity after preincubation with inhibitor: 123±13 pmol/mg protein min

## IGF-1: recombinant insulin-like growth factor-1 (Upstate Biotechnology)
[5]
  increase of eNOS mRNA level: 47±10%

## insulin: insulin (Sigma Chemical Co), used to stimulate endothelial cells
[1]
  concentration at which maximal effect on eNOS mRNA level was attained: < 100 nmol/L
[1]; insulin 0.1 nmol/L
  response of eNOS mRNA expression: significant increase
[1]; insulin 10 nmol/L
  increase of eNOS mRNA level: 50±12%
[1]; insulin 100 nmol/L
  maximum effect on eNOS mRNA level (dose response): 2 fold
[1]; insulin 100 nmol/L, 1 hour
  increase of eNOS mRNA expression: 33±9%
[1]; insulin 100 nmol/L, 6 hours
  increase of eNOS mRNA expression: 71±21%
[1]; insulin 100 nmol/L, 12 hours, maintained for 24 hours
  maximum increase of eNOS mRNA expression: 2 fold
[1]; insulin 100 nmol/L, Example 2
  increase of eNOS mRNA level compared with control: 58±20%
[2]; insulin 100 nmol/L, Example 2
  increase of eNOS protein level: 74±9%
[2]; insulin, 6 hours
  increase of eNOS protein levels: 43±16%
[2]; insulin, 24 hours, maintained for 36 hours
  maximum increase of eNOS protein levels: 2 fold
[4]; after 24 hours
  NOS activity: 176±7 pmol/mg protein min
[3]; insulin 100 nmol/L, 5 minutes
  increase of IRS-2-associated PI-3 kinase activity: 5.4±0.4 fold
[6]; insulin 100 nmol/L, BAECs with or without adenovirus containing only β-Gal
  enhancement of eNOS mRNA expression: ≤ 2 fold
[6]; insulin, cells infected with adenovirus containing the PKCβ1 isoform
  change of eNOS mRNA levels: did not increase
[7]; vascular stroma from Zucker lean rats
  increase of eNOS mRNA levels: 50±16%
[7]; vascular stroma from insulin-resistant (Zucker fatty) rats
  effect on eNOS mRNA levels: ineffective

## lysophosphatidylcholine [LPC]
[6]; adenovirus-containing β-Gal cells
  increase of eNOS mRNA levels: 4.5 fold
[6]; control cells
  increase of eNOS mRNA levels: 5 fold
[6]; LPC, BAECs infected with the adenoviral-PKCβ1 isoform
  increase of eNOS mRNA: 4 fold
